The text below walks through data of patent US20070161546A1, “Methods and compositions for treatment of cancer” (priority 2005, published 2007).

For experiment [1], the system named is human monocyte-derived macrophages (MDMs). Particulars: p38 MAPK inhibitor added to Z-100; cited from earlier work.
Experiment [2] deals with Ehrlich ascites tumor cell. Particulars: mice, 14 days after inoculation with cancer cells.
From the text: The injection is repeated over a period of several days. Fourteen days later after the initial inoculation with cancer cells, each of the treated mice are anesthetized.
The solid tumor growing in the abdominal section is carefully isolated from other organ tissues, cleaned using filter papers and weighed. For the test and the control group, the average weight of the cancerous tissue was tabulated and evaluated by the t-test.

On to `C[S+]([O-])c1ccc(-c2nc(-c3ccncc3)c(-c3ccc(F)cc3)[nH]2)cc1` (centres unmarked) [SB 203580], for which, in experiment [1], the “effect on Z-100-induced effects (repression of HIV-1 replication)” value was “alleviated”. In the case of `O=P1(N(CCCl)CCCl)NCCCO1` (centres unmarked) [cyclophosphamide, Cyclophosphamide], the “anticancer effect (average weight of the cancerous tissue), agent alone” value in experiment [2] was “anticancer effects of similar magnitude”.
